Experimental data published in US20250057853A1 (priority 2023, published 2025).

Conditions: Cohort 5: 4.0 g/kg via 15-minutes IV infusion

Br.CN1[C@@H]2C[C@@H](OC(=O)[C@H](CO)c3ccccc3)C[C@H]1[C@@H]1O[C@@H]12.O.O.O [scopolamine HBr, scopolamine hydrobromide trihydrate]
Number of TEAEs: 25 AEs
